Test results taken from patent US8008009B2, “Method for ProNGF assay for in vitro diagnosis of cancer in particular breast, thyroid or lung cancer and therapeutic use of ProNGF” (Biomerieux, priority 2006, dated 2011).

What was measured:
Assay type in all cases: cell-based, human
MCF-7 cells [1] = assay: Boyden chamber (Transwell) migration test; conditions: 200 ng/mL in lower chamber, starving medium, 24 h, compared with starving medium alone
Protocol: (§1) A “starving” medium was used, “starving” denoting a medium identical to the complete medium but without serum and supplemented with 2 μg/mL of fibronectin and 30 μg/mL of transferrin. For the various biological activity measurements, the various test molecules (ProNGF, NGF and galardin) are added to this starving medium. During the treatments, the media are renewed every 24 hours.
(§2) The migration and invasion tests are carried out as previously described by Bracke et al. (1999, J Natl Cancer Inst, 91: 354-359). The protocols for using Boyden chambers and for invasion in collagen gel are described below.
12-well plates containing Transwells® with a pore diameter of 12 μm are equilibrated with starving medium and placed at 37° C. under 5% CO2 for 2 hours. The medium is then drawn off and replaced, in the lower chamber, by starving medium with the various test molecules, whereas, in the upper chamber, 40 000 cells are seeded in starving medium alone. […] Each condition is carried out in duplicate; a minimum of 40 fields is counted for each condition. […]
The effects of ProNGF on the migration of mammary epithelial cells were comprehended by means of tests in Boyden chambers (Transwell®). Each condition was carried out in duplicate and a minimum of 40 fields was counted. […] The cells having crossed the Transwell® were then counted. *p<0.05, comparison with the starving medium alone condition.

MCF-7 cells [2] = assay: Collagen type I gel invasion test; conditions: 200 ng/mL, starving medium, 24 h
Protocol: as §1, §2
The collagen type I gel is prepared in the following way: 2.1 mL of collagen Type I, 0.8 mL of EMEM (10×), 4.6 mL of PBS, 0.8 mL of NaHCO3 at 0.25 M and 0.15 mL of 1 M NaOH. 1.25 mL are deposited in the wells of a 6-well plate. Once the gel has solidified, 100 000 cells are seeded with starving medium and the various test molecules for 24 hours. The cells are subsequently counted and the invasion index is determined (number of deep cells related to the number of cells at the surface). Each condition is carried out in triplicate and a minimum of 45 fields is counted per condition.
The invasive capacity of the ProNGF-stimulated MCF-7 cells was tested in collagen type I gel. Each condition is carried out in triplicate and a minimum of 45 fields is counted per condition. […]

ProNGF = assay: Anti-ProNGF Western blotting after siRNA transfection, densitometry; conditions: MCF-7 cells, 3 μg siRNA
Protocol: The MCF-7 cells are passaged 3-4 days before transfection, so as to reach 50% confluence at the time of the experiment. Two million cells are taken up in 100 μl of Nucleofector Kit V solution and 3 μg of siRNA are added. The transfection program used on the Nucleofector is E-14. Anti-ProNGF Western blotting is carried out on the lysates recovered after 24 hours or after 48 hours, according to the protocol described in point 2.1. The relative amount of ProNGF detected by blotting is evaluated with the QuantityOne software (Bio-Rad), related to the equal loading (actin) and presented in the form of a histogram where 100% is assigned to the siGFP control condition.
The MCF-7 cells were transfected with 3 μg interfering RNA (siRNA) directed against GFP (siGFP) or against ProNGF (siProNGF). After 24 to 48 h of culture, the cells were lysed and ProNGF Western blotting was carried out. The relative amount of ProNGF detected by blotting was evaluated with the QuantityOne software (Bio-Rad) related to the actin equal loading and presented in the form of a histogram where 100% is assigned to the siGFP control condition (FIG. 10). […] Densitometric analysis made it possible to evaluate this decrease at 59% after 24 h of transfection.

Sortilin = assay: Anti-Sortilin Western blotting after siRNA transfection; conditions: MDA-MB-231 cells transfected with siRNA
Protocol: For the Western blotting, the membranes are saturated with 4% bovine serum albumin in a solution of TBS (Tris Buffered Saline) 0.1% Tween 20 (17.54 g NaCl, 2.42 g Tris, 2 mL tween 20, QS 2 L, pH adjusted to 7.4) at ambient temperature for 2 hours. After saturation, the membranes are incubated overnight at 4° C. with the various primary antibodies: anti-Sortilin (BD612101 from BD Biosciences) at 1:2000, anti-Actin (A-2066 from Sigma) at 1:5000 in the saturation solution. After rinsing with TBS 0.1% Tween 20, the membranes are incubated for 1 hour at ambient temperature with an anti-rabbit secondary antibody (A-1949 from Sigma, France) coupled to horseradish peroxidase, at 1:20000 in the saturation solution. After rinsing, visualization is carried out with the ECL system (Pierce Interchim, France) according to the recommended data for use.
The MDA-MB-231 cells are passaged 2 days before the transfection, so as to reach 80% confluence at the time of the experiment. The cells to be transfected are trypsinized and then counted. The cell pellet (1 million cells) is taken up in 100 μl of Nucleofector Kit V solution and 3 μg of siRNA are added. This cell suspension is transferred into an electroporation cuvette, placed in the Amaxa apparatus and electroporated according to the X-13 program. […] The cell proliferation is followed over time and the cells are counted at regular time intervals. […]

MDA-MB-231 cells = assay: Cell proliferation (cell count) after siRNA transfection; conditions: 3 μg siRNA, EMEM culture medium, counted at 24, 48 and 96 h; Mock and siGFP controls double between 24 and 48 h
Protocol: The interfering RNA (siRNA) transfection experiments were carried out with the Cell Line Nucleofector kit from Amaxa and the corresponding electroporation apparatus. This system makes it possible to obtain a high efficiency of gene transfer to the nucleus (nucleofection).
The MDA-MB-231 cells are passaged 2 days before the transfection, so as to reach 80% confluence at the time of the experiment. The cells to be transfected are trypsinized and then counted. The cell pellet (1 million cells) is taken up in 100 μl of Nucleofector Kit V solution and 3 μg of siRNA are added. This cell suspension is transferred into an electroporation cuvette, placed in the Amaxa apparatus and electroporated according to the X-13 program. The cells are subsequently put back in culture in a well of a 6-well plate for 24-72 h. The cell proliferation is followed over time and the cells are counted at regular time intervals. Anti-Sortilin Western blotting is carried out on the lysates recovered at various times, according to the protocol described in the previous paragraph, “Expression of Sortilin”.
MDA-MB-231 cells maintained in the EMEM culture medium were transfected either with culture medium alone (Mock), or with an interfering RNA directed against the GFP protein (siGFP) or with an interfering RNA directed against Sortilin (siSORT).

**Q.** For “ProNGF: human recombinant nerve growth factor precursor sold by SCIL proteins”, which cell migration (MCF-7 cells [1]) is on record?
**A.** increase their ability to migrate

**Q.** What about the “invasion (invasion index)” value (MCF-7 cells [2]) of the same substance?
**A.** stimulates MCF-7 invasion

**Q.** “siProNGF: interfering RNA directed against ProNGF; double-stranded RNA of SEQ ID No.5 and SEQ ID No.6 (chain 1 CAGUGUAUUCAAACAGUAUNN; chain 2 GUACUGUUUGAAUACACUGNN; listed as RNA, chemistry not given here)” was tested. Which “expression of the ProNGF protein (photographs of the blots)” value (ProNGF; 24 to 48 h of culture) did it give?
**A.** decreases the expression of the ProNGF protein

**Q.** What about the “decrease in expression of ProNGF (densitometric analysis)” value (ProNGF; after 24 h of transfection, 100% assigned to siGFP control, related to actin) of the same substance?
**A.** 59%

**Q.** “siSORT: interfering RNA which decreases the expression of Sortilin; double-stranded RNA of SEQ ID No.3 and SEQ ID No.4 (chain 1 GGUGGUGUUAACAGCAGAGNN; chain 2 CUCUGCUGUUAACACCACCNN; listed as RNA, chemistry not given here)” was tested. Which “level of expression of the Sortilin protein” value (Sortilin) did it give?
**A.** decreased the level of expression of the Sortilin protein

**Q.** What about the “number of MDA-MB-231 cells in culture over time” value (MDA-MB-231 cells) of the same substance?
**A.** does not increase over time

**Q.** With “NGF: recombinant nerve growth factor obtained from R&D systems” as the substance, how does the cell migration (MCF-7 cells [1]) read?
**A.** increase their ability to migrate, in a similar manner to NGF
